In patent publication US10100372B2, “Recombinant RSV reporter virus” (priority 2014, dated 2018):
Where two headings read alike, the source gives them in different places. *1 amine or outer side, *2 acyl side, *3 side chain or, on linkers, in order; H or OH if unused. Where a SMILES comes first, the peptide text is derived from it. Bridges are numbered along the chain shown (N, C = ends). Roman numbers before positions name the chains, in order. [ ]: non-standard residue; d: D form. Actinocin(9to1) = Cc1c2oc3c(C)ccc(C(=O)[*:1])c3nc-2c(C(=O)[*:2])c(N)c1=O; NMeV = CN[C@H](C(=O)O)C(C)C; Sar = CNCC(=O)O

Assays:
[1] = tested on: recRSV A2-L19FD489E-fireSMASh; test: microbe, parasite or virus in culture; assay type: cell-based, Respiratory Syncytial Virus; details: 384-well, four replicate screens, mean ± SD, BEAS-2B co-infection; for inhibition at 5 µM: human respiratory syncytial virus, read-out: % Inhibition (anti-RSV)
recIAV WSN-NanoLuc [2] = test: microbe, parasite or virus in culture; assay type: cell-based, influenza virus IAV/WSN/33 (H1N1); details: for inhibition at 5 µM: unidentified influenza virus, WSN, BEAS-2B, read-out: % Inhibition (anti-IAV)
in vitro = details: human
recIAV WSN-NanoLuc [3] = test: microbe, parasite or virus in culture; details: Influenza A virus, BEAS-2B, read-out: EC50 IAV WSN-nanoLuc
recRSV A2-L19F-renilla = test: microbe, parasite or virus in culture; assay type: cell-based; details: BEAS-2B; for EC50: human respiratory syncytial virus, read-out: EC50 RSV A2-L19F-renilla
[4] = tested on: recRSV A2-L19FD489E-fireSMASh; details: for SI [CC50/EC50] RSV: SIRSV
recIAV WSN-NanoLuc [5] = details: for SI [CC50/EC50] IAV: SIIAV; for EC50 IAV WSN-nanoLuc: BEAS-2B, 95% confidence interval in parentheses, inactive = less than 50% reduction of mean reporter signal
[6] = tested on: recRSV A2-L19FD489E-fireSMASh; test: microbe, parasite or virus in culture; details: human respiratory syncytial virus, BEAS-2B, read-out: EC50 RSV A2-L19FD489E-fireSMASh
BEAS-2B cells = details: highest concentration 10 μM; tox = less than 50% cell viability after 44 hours at ≤10 μM
RSV F protein = RSV F protein (Human respiratory syncytial virus, UniProt P12568); details: resistance sites in the RSV F protein; cited from earlier work
RSV A2 strain = details: cited from earlier work
recRSV A2-L19F-ren = assay type: cell-based; details: GPAR-3710 added later than four hours post-infection; JMN3-003 added eight hours post-infection
[7] = 95% confidence interval in parentheses, inactive = less than 50% reduction of mean reporter signal

Chain of RSV F protein (P12568 137-574 limits assumed): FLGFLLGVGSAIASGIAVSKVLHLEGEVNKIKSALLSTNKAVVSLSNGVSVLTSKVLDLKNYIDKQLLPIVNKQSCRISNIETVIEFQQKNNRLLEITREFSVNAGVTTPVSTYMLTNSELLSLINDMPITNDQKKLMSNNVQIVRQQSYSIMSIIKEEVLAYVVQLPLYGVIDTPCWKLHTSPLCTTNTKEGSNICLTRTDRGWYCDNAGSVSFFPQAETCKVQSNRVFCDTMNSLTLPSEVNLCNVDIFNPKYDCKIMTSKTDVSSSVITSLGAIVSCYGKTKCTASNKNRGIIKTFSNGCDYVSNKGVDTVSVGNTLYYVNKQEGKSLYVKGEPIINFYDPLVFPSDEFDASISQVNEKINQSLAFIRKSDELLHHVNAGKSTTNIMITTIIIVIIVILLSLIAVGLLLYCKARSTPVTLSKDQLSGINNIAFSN
Chain of RSV F protein (P12568 26-109 partner limits assumed): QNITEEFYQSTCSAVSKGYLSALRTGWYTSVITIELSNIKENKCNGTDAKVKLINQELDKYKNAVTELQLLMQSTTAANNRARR

**Q.** With `Cc1c2oc3c(C)ccc(C(=O)N[C@@H]4C(=O)N[C@H](C(C)C)C(=O)N5CCC[C@H]5C(=O)N(C)CC(=O)N(C)[C@@H](C(C)C)C(=O)O[C@@H]4C)c3nc-2c(C(=O)N[C@@H]2C(=O)N[C@H](C(C)C)C(=O)N3CCC[C@H]3C(=O)N(C)CC(=O)N(C)[C@@H](C(C)C)C(=O)O[C@@H]2C)c(N)c1=O` [Actinomycin D] (I: T[dV]P[Sar][NMeV] / II: T[dV]P[Sar][NMeV]; ester I:1-I:C, II:1-II:C; linker I:N-II:N via Actinocin(9to1)) as the compound, how does the “% Inhibition (anti-RSV)” value ([1]; 5 μM) read?
**A.** 52 ± 9.6%

**Q.** And the “% Inhibition (anti-IAV)” value (recIAV WSN-NanoLuc [2]; 5 μM)?
**A.** 104 ± 1.5%

**Q.** Which CC50 (in vitro) does the source give for `Nc1nc(N)c2nc(CNc3ccc(C(=O)N[C@@H](CCC(=O)O)C(=O)O)cc3)cnc2n1` [Aminopterin] here?
**A.** 10000 nM

**Q.** And the EC50 (recIAV WSN-NanoLuc [3])?
**A.** 90 nM

**Q.** And the EC50 (recRSV A2-L19F-renilla)?
**A.** 50 nM

**Q.** What about the “SI [CC50/EC50] RSV” value [4] of the same compound?
**A.** SIRSV 143

**Q.** What about the “SI [CC50/EC50] IAV” value (recIAV WSN-NanoLuc [5]) of the same compound?
**A.** SIIAV 111

**Q.** And the EC50 [6]?
**A.** 70 nM

**Q.** With `CC(=O)OC[C@H]1O[C@@H]([S-])[C@H](OC(C)=O)[C@@H](OC(C)=O)[C@@H]1OC(C)=O.CCP(CC)CC.[Au+]` [Auranofin] as the compound, how does the “CC50 (PrestoBlue cell viability)” value (BEAS-2B cells) read?
**A.** tox^d

**Q.** Which results are given for `COc1cc2nc(N3CCCN(C)CC3)nc(NC3CCN(Cc4ccccc4)CC3)c2cc1OC` [BIX 01294]?
**A.** CC50 (in vitro): > 10000 nM; EC50 RSV A2-L19F-renilla (recRSV A2-L19F-renilla; [7]): inactive^e; EC50 RSV A2-L19FD489E-fireSMASh ([4]; BEAS-2B, 95% confidence interval in parentheses, inactive = less than 50% reduction of mean reporter signal): inactive^e; EC50 IAV WSN-nanoLuc (recIAV WSN-NanoLuc [5]): inactive^e

**Q.** What does the source list for `O=c1n(Cc2nc3ccccc3n2CCCCO)c2cnccc2n1C1CC1` [BMS-433771]?
**A.** reported resistance sites (RSV F protein): FF140I FV144A FD392G FK394R FD489Y; EC50 (RSV A2 strain): 10 nM

**Q.** For `Cc1c(-c2ccc(-c3ccccc3F)cc2)nc2ccc(F)cc2c1C(=O)O` [Brequinar], which CC50 (in vitro) is on record?
**A.** > 10000 nM

**Q.** And the EC50 (recIAV WSN-NanoLuc [3])?
**A.** 2600 nM

**Q.** What about the EC50 (recRSV A2-L19F-renilla; [7]) of the same compound?
**A.** 1800 nM

**Q.** And the “SI [CC50/EC50] RSV” value [4]?
**A.** SIRSV >6.3

**Q.** And the “SI [CC50/EC50] IAV” value (recIAV WSN-NanoLuc [5])?
**A.** SIIAV >3.8

**Q.** What about the EC50 [6] of the same compound?
**A.** 1600 nM

**Q.** Which “CC50 (PrestoBlue cell viability)” value (BEAS-2B cells) does the source give for `CNc1ccc2oc(C[C@H]3O[C@@]4(CC[C@H]3C)O[C@H]([C@H](C)C(=O)c3ccc[nH]3)[C@H](C)C[C@H]4C)nc2c1C(=O)O` [Calcimycin] here?
**A.** tox^d

**Q.** With `CC[C@H]1CN2CCc3cc(OC)c(OC)cc3[C@@H]2C[C@@H]1C[C@H]1NCCc2cc(OC)c(OC)cc21` [Emetine] as the compound, how does the “CC50 (PrestoBlue cell viability)” value (BEAS-2B cells) read?
**A.** tox^d

**Q.** For `COc1cccc2c1C(=O)c1c(O)c3c(c(O)c1C2=O)C[C@@](O)(C(=O)CO)C[C@@H]3O[C@H]1C[C@H](N)[C@@H](O)[C@H](C)O1` [Epirubicin], which inhibition at 5 µM [1] is on record?
**A.** 62 ± 6.3%

**Q.** And the inhibition at 5 µM (recIAV WSN-NanoLuc [2])?
**A.** 75 ± 3.1%

**Q.** What does the source list for `COc1cc([C@@H]2c3cc4c(cc3[C@@H](O[C@@H]3O[C@@H]5CO[C@@H](C)O[C@H]5[C@H](O)[C@H]3O)[C@H]3COC(=O)[C@H]23)OCO4)cc(OC)c1O` [Etoposide]?
**A.** inhibition at 5 µM [1]: 80 ± 6.6%; inhibition at 5 µM (recIAV WSN-NanoLuc [2]): 56 ± 5.6%

**Q.** With `CC1=C(/C=C/C(C)=C/C=C/C(C)=C/C(=O)Nc2ccc(O)cc2)C(C)(C)CCC1` [Fenretinide] as the compound, how does the CC50 (in vitro) read?
**A.** > 10000 nM

**Q.** And the EC50 (recRSV A2-L19F-renilla; [7])?
**A.** 4800 nM

**Q.** What about the “SI [CC50/EC50] RSV” value [4] of the same compound?
**A.** SIRSV >2.8

**Q.** And the “selectivity for RSV reporter” value ([4]; dose-response counterscreen)?
**A.** selectively inhibited RSV

**Q.** What about the “EC50 IAV WSN-nanoLuc” value (recIAV WSN-NanoLuc [5]) of the same compound?
**A.** inactive^e

**Q.** And the “effect on IAV reporter strain” value (recIAV WSN-NanoLuc [5]; highest concentration tested)?
**A.** unaffected

**Q.** And the EC50 [6]?
**A.** 3600 nM

**Q.** What does the source list for `Nc1ccn([C@@H]2O[C@H](CO)[C@@H](O)C2(F)F)c(=O)n1` [Gemcitabine]?
**A.** CC50 (in vitro): > 10000 nM; EC50 (recIAV WSN-NanoLuc [3]): 100 nM; EC50 (recRSV A2-L19F-renilla; [7]): 50 nM; SI [CC50/EC50] RSV [4]: SIRSV >111; SI [CC50/EC50] IAV (recIAV WSN-NanoLuc [5]): SIIAV >100; EC50 [6]: 90 nM

**Q.** What does the source list for `COC(=O)C[C@](O)(CCCC(C)(C)O)C(=O)O[C@@H]1C(OC)=C[C@]23CCCN2CCc2cc4c(cc2[C@H]13)OCO4` [Homoharringtonine]?
**A.** inhibition at 5 µM [1]: 98 ± 0.5%; inhibition at 5 µM (recIAV WSN-NanoLuc [2]): 90 ± 2.6%

**Q.** Which inhibition at 5 µM [1] does the source give for `CC(=O)[C@]1(O)Cc2c(O)c3c(c(O)c2[C@@H](O[C@H]2C[C@H](N)[C@H](O)[C@H](C)O2)C1)C(=O)c1ccccc1C3=O` [Idarubicin] here?
**A.** 95 ± 1.3%

**Q.** And the “CC50 (PrestoBlue cell viability)” value (BEAS-2B cells)?
**A.** tox^d

**Q.** And the inhibition at 5 µM (recIAV WSN-NanoLuc [2])?
**A.** 97 ± 1%

**Q.** Which “antiviral activity in time-of-addition study” value (recRSV A2-L19F-ren) does the source give for `COc1ccc(-n2c(SC(C)C(=O)Nc3ccc(C)cc3Cl)nc3ccccc32)cc1` (stereo not drawn) [JMN3-003] here?
**A.** remained potently inhibitory

**Q.** What does the source list for `Cc1ccc(O)c(Cn2c(NC3CCN(CCN)CC3)nc3c(C)cccc32)n1` [JNJ2408068]?
**A.** reported resistance sites (RSV F protein): FK399I FD486N FE487D; EC50 (RSV A2 strain; active concentrations based on in vitro assays, when available RSV A2 strain): 2.1 nM

**Q.** Which “CC50 (PrestoBlue cell viability)” value (BEAS-2B cells) does the source give for `Nc1nc2c(c(=O)[nH]1)C[C@@H](CCc1ccc(C(=O)N[C@@H](CCC(=O)O)C(=O)O)cc1)CN2` [Lometrexol] here?
**A.** tox^d

**Q.** What does the source list for `CN(Cc1cnc2nc(N)nc(N)c2n1)c1ccc(C(=O)N[C@@H](CCC(=O)O)C(=O)O)cc1` [Methotrexate]?
**A.** inhibition at 5 µM [1]: 99 ± 0.5%; inhibition at 5 µM (recIAV WSN-NanoLuc [2]): 100 ± 0.6%
